Laboratory results reported in article PMC3961306, “Comparison of the Cancer Gene Targeting and Biochemical Selectivities of All Targeted Kinase Inhibitors Approved for Clinical Use” (PLoS ONE, 2014).

Legend:
Experiment in all cases: Kinase profiling in a biochemical assay panel (mobility shift assays and ELISA), %-inhibition at 1 μM; selectivity entropy
[1] = molecular target: panel of more than 300 wild-type and mutant kinases (313 kinase panel) (Homo sapiens, UniProt Q13177); details: kinase PAK2; 1 μM
[2] = molecular target: panel of more than 300 wild-type and mutant kinases (313 kinase panel) (Homo sapiens, UniProt P42336); details: kinase PIK3CA/PIK3R1; 1 μM
[3] = molecular target: panel of more than 300 wild-type and mutant kinases (313 kinase panel) (Homo sapiens, UniProt Q00526); details: kinase CDK3/CycE1; 1 μM compound
[4] = molecular target: panel of more than 300 wild-type and mutant kinases (313 kinase panel) (Homo sapiens, UniProt Q9HC98); details: kinase NEK6; 1 μM
[5] = molecular target: panel of more than 300 wild-type and mutant kinases (313 kinase panel) (Homo sapiens, UniProt P49761); details: kinase CLK3; compound at 1 μM
[6] = molecular target: panel of more than 300 wild-type and mutant kinases (313 kinase panel) (Homo sapiens, UniProt P06239); details: kinase LCK; compound at 1 μM
[7] = molecular target: panel of more than 300 wild-type and mutant kinases (313 kinase panel) (Homo sapiens, UniProt P22455, V550L); details: kinase FGFR4(V550L); compound at 1 μM
[8] = molecular target: panel of more than 300 wild-type and mutant kinases (313 kinase panel) (Homo sapiens, UniProt P53350); details: kinase PLK1; 1 μM
[9] = molecular target: panel of more than 300 wild-type and mutant kinases (313 kinase panel) (Homo sapiens, UniProt P36507); details: kinase MAP2K2; compound at 1 μM
[10] = molecular target: panel of more than 300 wild-type and mutant kinases (313 kinase panel) (Homo sapiens, UniProt Q13554); details: kinase CaMK2β; 1 μM compound
[11] = molecular target: panel of more than 300 wild-type and mutant kinases (313 kinase panel) (Homo sapiens, UniProt Q9H422); details: kinase HIPK3; compound at 1 μM
[12] = molecular target: panel of more than 300 wild-type and mutant kinases (313 kinase panel) (Homo sapiens, UniProt P22607, K650M); details: kinase FGFR3(K650M); compound at 1 μM
[13] = molecular target: T1, panel of more than 300 wild-type and mutant kinases (313 kinase panel) (Homo sapiens, UniProt Q12866); details: kinase MER; compound at 1 μM
T1 sequence (Q12866 21-999): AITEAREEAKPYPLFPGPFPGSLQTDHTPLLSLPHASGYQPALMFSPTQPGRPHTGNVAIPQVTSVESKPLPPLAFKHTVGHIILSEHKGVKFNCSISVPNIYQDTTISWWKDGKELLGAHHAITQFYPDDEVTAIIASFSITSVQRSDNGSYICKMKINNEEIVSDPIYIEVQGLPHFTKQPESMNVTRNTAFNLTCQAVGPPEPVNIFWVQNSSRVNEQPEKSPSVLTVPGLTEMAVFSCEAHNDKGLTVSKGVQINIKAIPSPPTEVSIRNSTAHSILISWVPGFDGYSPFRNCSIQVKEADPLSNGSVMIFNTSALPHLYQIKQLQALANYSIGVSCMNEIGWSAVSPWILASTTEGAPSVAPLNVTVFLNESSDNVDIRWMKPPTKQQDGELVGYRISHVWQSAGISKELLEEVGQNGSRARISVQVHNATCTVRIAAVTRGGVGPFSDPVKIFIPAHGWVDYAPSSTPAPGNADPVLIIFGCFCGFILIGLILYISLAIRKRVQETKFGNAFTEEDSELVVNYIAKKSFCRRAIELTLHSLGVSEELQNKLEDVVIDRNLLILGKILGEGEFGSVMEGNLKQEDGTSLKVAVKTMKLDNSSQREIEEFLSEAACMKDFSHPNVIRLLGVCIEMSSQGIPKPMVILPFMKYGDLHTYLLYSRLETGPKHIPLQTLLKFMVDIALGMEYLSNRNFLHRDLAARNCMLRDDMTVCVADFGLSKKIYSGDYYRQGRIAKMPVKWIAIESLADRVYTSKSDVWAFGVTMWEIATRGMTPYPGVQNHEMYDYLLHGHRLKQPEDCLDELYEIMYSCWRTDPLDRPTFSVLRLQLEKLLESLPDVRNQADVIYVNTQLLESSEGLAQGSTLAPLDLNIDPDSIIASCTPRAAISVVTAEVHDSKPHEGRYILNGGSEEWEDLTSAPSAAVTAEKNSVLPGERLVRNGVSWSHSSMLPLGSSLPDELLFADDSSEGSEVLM

[14] = molecular target: panel of more than 300 wild-type and mutant kinases (313 kinase panel) (Homo sapiens, UniProt Q8N568); details: kinase DCAMKL2; compound at 1 μM
[15] = molecular target: panel of more than 300 wild-type and mutant kinases (313 kinase panel) (Homo sapiens, UniProt P07332); details: kinase FES; compound at 1 μM

Sequence of panel of more than 300 wild-type and mutant kinases (313 kinase panel) (Homo sapiens, UniProt Q13554) (Q13554 whole entry, change not shown): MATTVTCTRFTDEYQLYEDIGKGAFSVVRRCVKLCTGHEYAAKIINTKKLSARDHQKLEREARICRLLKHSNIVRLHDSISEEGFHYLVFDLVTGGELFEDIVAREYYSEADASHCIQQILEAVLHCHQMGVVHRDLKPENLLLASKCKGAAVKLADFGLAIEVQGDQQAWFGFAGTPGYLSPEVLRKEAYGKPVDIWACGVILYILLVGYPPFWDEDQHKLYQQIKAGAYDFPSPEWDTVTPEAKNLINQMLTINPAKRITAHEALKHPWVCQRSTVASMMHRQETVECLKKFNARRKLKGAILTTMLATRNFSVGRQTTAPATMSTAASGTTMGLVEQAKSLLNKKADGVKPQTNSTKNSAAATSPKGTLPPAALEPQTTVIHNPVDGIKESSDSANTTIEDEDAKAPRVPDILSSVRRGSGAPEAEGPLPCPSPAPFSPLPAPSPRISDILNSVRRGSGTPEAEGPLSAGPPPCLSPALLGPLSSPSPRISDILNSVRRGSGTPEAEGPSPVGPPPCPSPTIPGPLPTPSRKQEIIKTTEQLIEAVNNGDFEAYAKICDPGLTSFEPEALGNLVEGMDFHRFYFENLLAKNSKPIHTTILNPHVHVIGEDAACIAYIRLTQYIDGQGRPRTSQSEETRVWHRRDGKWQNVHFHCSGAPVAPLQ
Sequence of panel of more than 300 wild-type and mutant kinases (313 kinase panel) (Homo sapiens, UniProt Q00526) (Q00526 whole entry, change not shown): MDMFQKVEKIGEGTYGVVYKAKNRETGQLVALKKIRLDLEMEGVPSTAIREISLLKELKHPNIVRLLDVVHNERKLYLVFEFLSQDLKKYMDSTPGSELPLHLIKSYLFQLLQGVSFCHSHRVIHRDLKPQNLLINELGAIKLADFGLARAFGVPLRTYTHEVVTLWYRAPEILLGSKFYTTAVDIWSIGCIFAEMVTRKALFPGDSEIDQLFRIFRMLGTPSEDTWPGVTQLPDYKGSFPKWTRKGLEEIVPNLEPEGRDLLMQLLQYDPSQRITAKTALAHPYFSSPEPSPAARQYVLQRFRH
Sequence of panel of more than 300 wild-type and mutant kinases (313 kinase panel) (Homo sapiens, UniProt P22607, K650M) (P22607 23-806 K650M): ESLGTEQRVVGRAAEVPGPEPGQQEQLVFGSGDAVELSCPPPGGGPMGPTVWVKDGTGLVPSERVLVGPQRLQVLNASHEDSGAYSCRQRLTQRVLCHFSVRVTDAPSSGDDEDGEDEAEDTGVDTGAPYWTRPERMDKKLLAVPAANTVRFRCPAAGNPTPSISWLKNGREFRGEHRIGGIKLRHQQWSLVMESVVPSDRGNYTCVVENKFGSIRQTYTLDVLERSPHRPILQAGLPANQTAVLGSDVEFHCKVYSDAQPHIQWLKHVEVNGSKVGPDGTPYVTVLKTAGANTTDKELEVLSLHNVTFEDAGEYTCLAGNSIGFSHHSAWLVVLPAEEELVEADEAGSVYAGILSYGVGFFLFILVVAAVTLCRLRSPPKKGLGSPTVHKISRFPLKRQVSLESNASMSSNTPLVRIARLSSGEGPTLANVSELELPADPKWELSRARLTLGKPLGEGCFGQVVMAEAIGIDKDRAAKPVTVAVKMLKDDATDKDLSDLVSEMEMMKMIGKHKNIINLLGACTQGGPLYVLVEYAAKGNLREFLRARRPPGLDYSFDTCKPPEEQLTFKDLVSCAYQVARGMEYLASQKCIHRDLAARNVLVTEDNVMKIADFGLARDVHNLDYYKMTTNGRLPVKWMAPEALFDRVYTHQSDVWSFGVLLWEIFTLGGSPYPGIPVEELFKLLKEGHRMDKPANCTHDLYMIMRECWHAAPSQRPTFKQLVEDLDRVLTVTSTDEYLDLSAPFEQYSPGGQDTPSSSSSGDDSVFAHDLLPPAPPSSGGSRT
Sequence of panel of more than 300 wild-type and mutant kinases (313 kinase panel) (Homo sapiens, UniProt P49761) (P49761 whole entry, change not shown): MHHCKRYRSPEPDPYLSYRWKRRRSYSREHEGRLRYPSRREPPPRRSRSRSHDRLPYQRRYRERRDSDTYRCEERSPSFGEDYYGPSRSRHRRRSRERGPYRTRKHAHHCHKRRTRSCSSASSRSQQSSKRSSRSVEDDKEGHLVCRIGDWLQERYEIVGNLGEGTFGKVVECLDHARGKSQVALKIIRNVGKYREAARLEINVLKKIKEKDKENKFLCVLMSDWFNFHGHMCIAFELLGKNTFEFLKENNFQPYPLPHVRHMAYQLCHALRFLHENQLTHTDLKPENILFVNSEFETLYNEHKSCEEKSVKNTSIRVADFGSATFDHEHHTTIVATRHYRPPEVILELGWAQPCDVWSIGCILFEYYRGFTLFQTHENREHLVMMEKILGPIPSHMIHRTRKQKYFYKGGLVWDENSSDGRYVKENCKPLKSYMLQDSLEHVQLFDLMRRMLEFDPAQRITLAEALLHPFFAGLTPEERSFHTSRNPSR
Sequence of panel of more than 300 wild-type and mutant kinases (313 kinase panel) (Homo sapiens, UniProt P22455, V550L) (P22455 22-802 V550L): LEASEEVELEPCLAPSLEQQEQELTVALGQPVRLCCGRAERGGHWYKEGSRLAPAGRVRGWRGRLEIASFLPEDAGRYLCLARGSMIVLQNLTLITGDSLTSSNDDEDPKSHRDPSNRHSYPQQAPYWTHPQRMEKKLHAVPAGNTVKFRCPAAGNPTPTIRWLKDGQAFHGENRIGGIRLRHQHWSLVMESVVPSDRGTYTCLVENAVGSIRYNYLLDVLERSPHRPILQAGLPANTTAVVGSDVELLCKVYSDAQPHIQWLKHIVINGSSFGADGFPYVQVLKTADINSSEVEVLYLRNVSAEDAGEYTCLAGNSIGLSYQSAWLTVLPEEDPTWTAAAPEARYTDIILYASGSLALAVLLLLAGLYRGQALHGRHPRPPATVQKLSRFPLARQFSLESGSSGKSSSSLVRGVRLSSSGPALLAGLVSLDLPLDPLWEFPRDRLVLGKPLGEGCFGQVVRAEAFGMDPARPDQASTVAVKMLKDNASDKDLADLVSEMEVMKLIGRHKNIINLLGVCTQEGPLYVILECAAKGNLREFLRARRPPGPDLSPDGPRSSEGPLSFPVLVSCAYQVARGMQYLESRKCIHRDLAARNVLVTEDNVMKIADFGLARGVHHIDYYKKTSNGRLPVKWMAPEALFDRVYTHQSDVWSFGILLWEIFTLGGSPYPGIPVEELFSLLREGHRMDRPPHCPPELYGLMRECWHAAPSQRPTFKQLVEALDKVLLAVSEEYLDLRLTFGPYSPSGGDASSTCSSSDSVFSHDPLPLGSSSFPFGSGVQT
Sequence of panel of more than 300 wild-type and mutant kinases (313 kinase panel) (Homo sapiens, UniProt P06239) (P06239 whole entry, stated change not applied): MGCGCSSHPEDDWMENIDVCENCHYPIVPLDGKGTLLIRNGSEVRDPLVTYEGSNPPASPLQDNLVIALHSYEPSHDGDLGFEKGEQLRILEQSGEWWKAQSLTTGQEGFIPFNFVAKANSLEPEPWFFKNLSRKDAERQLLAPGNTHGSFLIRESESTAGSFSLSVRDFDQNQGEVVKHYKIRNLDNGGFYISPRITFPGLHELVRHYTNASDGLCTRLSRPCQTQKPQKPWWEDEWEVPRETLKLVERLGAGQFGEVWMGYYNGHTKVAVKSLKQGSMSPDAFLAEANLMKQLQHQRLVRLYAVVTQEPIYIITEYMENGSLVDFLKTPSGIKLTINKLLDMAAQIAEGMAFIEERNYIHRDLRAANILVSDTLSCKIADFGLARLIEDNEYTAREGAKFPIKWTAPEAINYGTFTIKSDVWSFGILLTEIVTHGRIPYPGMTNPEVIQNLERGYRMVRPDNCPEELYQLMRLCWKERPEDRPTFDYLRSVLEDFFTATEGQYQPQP

SMILES	%-inhibition of PAK2 [1]	%-inhibition of PIK3CA/PIK3R1 [2]	%-inhibition, CDK3/CycE1 [3]	%-inhibition of NEK6 [4]	%-inhibition of CLK3 [5]	%-inhibition of LCK [6]	%-inhibition of FGFR4(V550L) [7]	%-inhibition of PLK1 [8]	%-inhibition of MAP2K2 [9]	%-inhibition, CaMK2β [10]	%-inhibition of HIPK3 [11]	%-inhibition of FGFR3(K650M) [12]	%-inhibition of MER [13]	%-inhibition of DCAMKL2 [14]	%-inhibition of FES [15]
CCCS(=O)(=O)Nc1ccc(F)c(C(=O)c2c[nH]c3ncc(-c4ccc(Cl)cc4)cc23)c1F [vemurafenib]	13%	24%	-4.34%	-1.43%	-14%	81%	0.45%	-4%	30%	-6.64%	-6%	8%	6%	-3.52%	18%
CNC(=O)c1cc(Oc2ccc(NC(=O)Nc3ccc(Cl)c(C(F)(F)F)c3)c(F)c2)ccn1 [regorafenib]	-1.3%	41%	-1.17%	-6.48%	-15%	85%	3.37%	-0.767%	16%	-9%	88%	101%	29%	-6%	-0.247%
CO[C@H]1C[C@@H]2CC[C@@H](C)[C@@](O)(O2)C(=O)C(=O)N2CCCC[C@H]2C(=O)O[C@H]([C@H](C)C[C@@H]2CC[C@@H](OC(=O)C(C)(CO)CO)[C@H](OC)C2)CC(=O)[C@H](C)/C=C(\C)[C@@H](O)[C@@H](OC)C(=O)[C@H](C)C[C@H](C)/C=C/C=C/C=C/1C [temsirolimus]	-1.81%	22%	-6%	-3.31%	-3%	-2.22%	-8.55%	-0.295%	13%	-9%	0.626%	0.626%	-3.24%	-4%	-4.68%
